# Source: US20110274656A1, “PHARMACEUTICAL COMPOSITION FOR PREVENTING OR TREATING HEPATITIS C, COMPRISING THE ROOTS EXTRACT OF PLATYCODON GRANDIFLORUM OR PLATYCODON GRANDIFLORUM SAPONIN COMPONENTS” (B&C Biopharm Co., Ltd., priority 2009, published 2011)
# Tested on: HCV subgenomic RNA replicon in Huh-7 human hepatoma cell line
# Experiment: HCV RNA replication inhibitory activity in HCV replicon (subgenomic RNA replicon) cell line
# Type: cell-based, HCV-1b Hepatitis C virus
# Details: Huh-7 cells harboring HCV-1b subgenomic replicon, 72 hours, RT-PCR
# Method: To screen a compound that is capable of inhibiting HCV replication, each compound was added to Huh-7 human hepatoma cell line harboring HCV RNA replicon, followed by culture. Then, expression level of HCV RNA was quantified and its inhibitory activity was measured. HCV replicon used in this invention was derived from HCV-1b Hepatitis C virus gene that was bicistronic replicon composed of HCV IRES, neomycin resistant gene, EMCV (encephalomyocarditis virus) IRES. HCV non-structural proteins were composed of the sequences comprising NS3-NS5B and HCV 3′end. An expression vector harboring HCV replicon proceeded to in vitro transcription, and the obtained HCV replicon was transfected into the Huh-7 cells by electroporation. To select only those cells having HCV replicon, Huh-7 cells were cultured with medium containing the antibiotic G418 (500 μg/ml). The selected cells were cultured with DMEM (Dulbecco's modified Eagles media) containing 10% FBS, non-essential amino acids and 500 μg/ml of G418.
# Huh-7 cells harboring HCV subgenomic RNA replicon were cultured overnight in 6 well plate (3×10^5 cells/well), at 37° C. and 5% CO2 with DMEM containing 10% FBS, non-essential amino acids and 500 μg/ml of G418. Medium of each well was replaced with DMEM containing 2% FBS, non-essential amino acids and 500 μg/ml of G418. Test compound was dissolved in DMSO, which was added to each well at different concentrations, followed by culture in a 5% CO2 incubator at 37° C. for 72 hours. Equal amount of DMSO (negative control) and Interferon-α (positive control) were added as controls. Upon completion of the culture, medium of each well was eliminated, followed by washing with 1 ml of PBS. 250 μl/well of trypsin/EDTA was added thereto and cells were separated from the plate and washed with PBS again to eliminate medium. Total RNA was isolated from the cells by using SV total RNA isolation system (Promega corporation), followed by quantification using GeneQuant pro (Amersham bioscience). EC50 against HCV replicon of each compound was investigated by RT-PCR and the result was compared with those of controls. RT-PCR was performed with the primer targeting HCV 1b NS5B region and by AccessQuick™ RT-PCR system (Promega corporation). To obtain more accurate EC50 values, quantitative real-time PCR was performed along with RT-PCR. cDNA was obtained from the isolated RNA by using Reverse transcription system (Promega corporation), followed by quantitative real-time PCR using iQ SYBR Green Supermix (Bio-rad). At the same time, one-step real time RT-PCR was performed using Taqman probe to investigate the inhibitory activity of each compound. At this time, the primer targeting HCV 5′-UTR was used and GAPDH (Glyceraldehyde-3-phosphate dehydrogenase) gene was used as a reference gene for correction. Real time RT-PCR was performed by using iCycler iQ5 system (Bio-rad). The EC50 value was calculated by iCycler iQ5 optical system software (Bio-rad) program to determine the inhibitory activity. HCV replicon inhibitory activity of saponin components of Platycodon grandiflorum, the roots extract of Platycodon grandiflorum and the composition containing the same of the present invention and sapogenin and prosapogenin is shown in Table 7 and Table 8.
row,Molecule,Inhibitory Activity EC50 (HCV RNA replication inhibitory activity of saponin components)
1,2″-O-acetyl-deapiopolygalacin D2 [Compound 11],>10 µg/mL
2,2″-O-acetyl-polygalacin D2 [Compound 12],1 µg/mL
3,"C[C@@H]1O[C@@H](O[C@H]2[C@H](OC(=O)[C@]34CCC(C)(C)C[C@H]3C3=CC[C@@H]5[C@@]6(C)C[C@H](O)[C@H](O[C@@H]7O[C@H](CO[C@@H]8O[C@H](CO[C@@H]9O[C@H](CO)[C@@H](O)[C@H](O)[C@H]9O)[C@@H](O)[C@H](O)[C@H]8O)[C@@H](O)[C@H](O)[C@H]7O)C(CO)(CO)[C@@H]6CC[C@@]5(C)[C@]3(C)C[C@H]4O)OC[C@H](O)[C@@H]2O)[C@H](O)[C@H](O)[C@H]1O[C@@H]1OC[C@@H](O)[C@H](O)[C@H]1O [Compound 1, deapioplatycoside E]",>10 µg/mL
4,"C[C@@H]1O[C@@H](O[C@H]2[C@H](OC(=O)[C@]34CCC(C)(C)C[C@H]3C3=CC[C@@H]5[C@@]6(C)C[C@H](O)[C@H](O[C@@H]7O[C@H](CO[C@@H]8O[C@H](CO[C@@H]9O[C@H](CO)[C@@H](O)[C@H](O)[C@H]9O)[C@@H](O)[C@H](O)[C@H]8O)[C@@H](O)[C@H](O)[C@H]7O)C(CO)(CO)[C@@H]6CC[C@@]5(C)[C@]3(C)C[C@H]4O)OC[C@H](O)[C@@H]2O)[C@H](O)[C@H](O)[C@H]1O[C@@H]1OC[C@@H](O)[C@H](O[C@@H]2OC[C@](O)(CO)[C@H]2O)[C@H]1O [Compound 2, platycoside E]",0.7 µg/mL
5,"CC1OC(OC2C(OC(=O)C34CCC(C)(C)CC3C3=CCC5C6(C)CC(O)C(OC7OC(COC8OC(CO)C(O)C(O)C8O)C(O)C(O)C7O)C(CO)(CO)C6CCC5(C)C3(C)CC4O)OCC(O)C2O)C(O)C(O)C1OC1OCC(O)C(OC2OCC(O)(CO)C2O)C1O (stereo not shown) [Compound 3, platycodin D3]",0.2 µg/mL
6,"C[C@@H]1O[C@@H](O[C@H]2[C@H](OC(=O)[C@]34CCC(C)(C)C[C@H]3C3=CC[C@@H]5[C@@]6(C)C[C@H](O)[C@H](O[C@@H]7O[C@H](CO)[C@@H](O)[C@H](O[C@@H]8O[C@H](CO)[C@@H](O)[C@H](O)[C@H]8O)[C@H]7O)[C@@](C)(CO)[C@@H]6CC[C@@]5(C)[C@]3(C)C[C@H]4O)OC[C@H](O)[C@@H]2O)[C@H](O)[C@H](O)[C@H]1O[C@@H]1OC[C@@H](O)[C@H](O[C@@H]2OC[C@](O)(CO)[C@H]2O)[C@H]1O [Compound 4, polygalacin D2]",>10 µg/mL
7,"C[C@@H]1O[C@@H](O[C@H]2[C@H](OC(=O)[C@]34CCC(C)(C)C[C@H]3C3=CC[C@@H]5[C@@]6(C)C[C@H](O)[C@H](O[C@@H]7O[C@H](CO)[C@@H](O)[C@H](O)[C@H]7O)[C@@](C)(CO)[C@@H]6CC[C@@]5(C)[C@]3(C)C[C@H]4O)OC[C@H](O)[C@@H]2O)[C@H](O)[C@H](O)[C@H]1O[C@@H]1OC[C@@H](O)[C@H](O[C@@H]2OC[C@](O)(CO)[C@H]2O)[C@H]1O [Compound 5, polygalacin D]",0.8 µg/mL
8,"C[C@@H]1O[C@@H](O[C@H]2[C@H](OC(=O)[C@]34CCC(C)(C)C[C@H]3C3=CC[C@@H]5[C@@]6(C)C[C@H](O)[C@H](O[C@@H]7O[C@H](CO)[C@@H](O)[C@H](O)[C@H]7O)[C@](CO)(C(=O)O)[C@@H]6CC[C@@]5(C)[C@]3(C)C[C@H]4O)OC[C@H](O)[C@@H]2O)[C@H](O)[C@H](O)[C@H]1O[C@@H]1OC[C@@H](O)[C@H](O[C@@H]2OC[C@](O)(CO)[C@H]2O)[C@H]1O [Compound 6, platyconic acid A]",0.2 µg/mL
9,"C[C@@H]1O[C@@H](O[C@H]2[C@H](OC(=O)[C@]34CCC(C)(C)C[C@H]3C3=CC[C@@H]5[C@@]6(C)C[C@H](O)[C@H](O[C@@H]7O[C@H](CO)[C@@H](O)[C@H](O[C@@H]8O[C@H](CO)[C@@H](O)[C@H](O)[C@H]8O)[C@H]7O)C(CO)(CO)[C@@H]6CC[C@@]5(C)[C@]3(C)C[C@H]4O)OC[C@H](O)[C@@H]2O)[C@H](O)[C@H](O)[C@H]1O[C@@H]1OC[C@@H](O)[C@H](O)[C@H]1O [Compound 7, deapioplatycodin D2]",0.2 µg/mL
10,"C[C@@H]1O[C@@H](O[C@H]2[C@H](OC(=O)[C@]34CCC(C)(C)C[C@H]3C3=CC[C@@H]5[C@@]6(C)C[C@H](O)[C@H](O[C@@H]7O[C@H](CO)[C@@H](O)[C@H](O[C@@H]8O[C@H](CO)[C@@H](O)[C@H](O)[C@H]8O)[C@H]7O)C(CO)(CO)[C@@H]6CC[C@@]5(C)[C@]3(C)C[C@H]4O)OC[C@H](O)[C@@H]2O)[C@H](O)[C@H](O)[C@H]1O[C@@H]1OC[C@@H](O)[C@H](O[C@@H]2OC[C@](O)(CO)[C@H]2O)[C@H]1O [Compound 8, platycodin D2]",0.1 µg/mL
11,"C[C@@H]1O[C@@H](O[C@H]2[C@H](OC(=O)[C@]34CCC(C)(C)C[C@H]3C3=CC[C@@H]5[C@@]6(C)C[C@H](O)[C@H](O[C@@H]7O[C@H](CO)[C@@H](O)[C@H](O)[C@H]7O)C(CO)(CO)[C@@H]6CC[C@@]5(C)[C@]3(C)C[C@H]4O)OC[C@H](O)[C@@H]2O)[C@H](O)[C@H](O)[C@H]1O[C@@H]1OC[C@@H](O)[C@H](O)[C@H]1O [Compound 9, deapioplatycodin D]",0.2 µg/mL
12,"C[C@@H]1O[C@@H](O[C@H]2[C@H](OC(=O)[C@]34CCC(C)(C)C[C@H]3C3=CC[C@@H]5[C@@]6(C)C[C@H](O)[C@H](O[C@@H]7O[C@H](CO)[C@@H](O)[C@H](O)[C@H]7O)C(CO)(CO)[C@@H]6CC[C@@]5(C)[C@]3(C)C[C@H]4O)OC[C@H](O)[C@@H]2O)[C@H](O)[C@H](O)[C@H]1O[C@@H]1OC[C@@H](O)[C@H](O[C@@H]2OC[C@](O)(CO)[C@H]2O)[C@H]1O [Compound 10, platycodin D]",0.1 µg/mL
13,"CC1(C)CC[C@]2(C(=O)O)[C@H](O)C[C@]3(C)C(=CC[C@@H]4[C@@]5(C)C[C@H](O)[C@H](O)C(CO)(CO)[C@@H]5CC[C@]43C)[C@@H]2C1 [Compound 14, platycodigenin]",>10 µg/mL
14,"CC1(C)CCC2(C(=O)O)C(O)CC3(C)C(=CCC4C5(C)CC(O)C(O)C(C)(CO)C5CCC43C)C2C1 (stereo not shown) [Compound 15, polygalacic acid]",2 µg/mL
15,"COC(=O)C12CCC(C)(C)CC1C1=CCC3C4(C)CC(O)C(OC5OC(CO)C(O)C(O)C5O)C(CO)(CO)C4CCC3(C)C1(C)CC2O (stereo not shown) [Compound 18, platycodigenin 3-O-glucopyranoside 28-methyl ester]",>10 µg/mL
16,"COC(=O)C12CCC(C)(C)CC1C1=CCC3C4(C)CC(O)C(OC5OC(CO)C(O)C(OC6OC(CO)C(O)C(O)C6O)C5O)C(CO)(CO)C4CCC3(C)C1(C)CC2O (stereo not shown) [Compound 19, platycodigenin 3-O-laminaribioside 28-methyl ester]",>10 µg/mL
17,platycogenic acid A lactone 3-O-glucopyranoside [Compound 17],2 µg/mL
18,platycogenic acid A lactone [Compound 16],0.4 µg/mL
19,platyconic acid A methyl ester [Compound 13],5 µg/mL
